# Assay results from patent publication US20230373939A1 (VERTEX PHARMACEUTICALS INCORPORATED, priority 2020, published 2023).
# Molecular target: CFTR (Homo sapiens, UniProt P13569)
# Experiment: Standard Ussing Chamber Assay for CFTR potentiator activity
# Assay type: cell-based
# Protocol: tert-Butyl N-[(6R,12R)-6-benzyloxy-12-methyl-6,15-bis(trifluoromethyl)-13,19-dioxa-3,4,18-triazatricyclo[12.3.1.12,5]nonadeca-1(18),2,4,14,16-pentaen-17-yl]-N-tert-butoxycarbonyl-carbamate (8.6 g, 11.77 mmol) was dissolved in ethanol (172 mL) then the flask was cycled 3 times between vacuum/nitrogen. Treated the mixture with 10% Pd/C (50% water wet, 1.8 g of 5% w/w, 0.8457 mmol) then cycled 3 times between vacuum/nitrogen and 3 times between vacuum/hydrogen and then stirred vigorously under hydrogen (balloon) at room temperature for 18 h. The mixture was cycled 3 times between vacuum/nitrogen, filtered over Celite washing with ethanol and then the filtrate was evaporated to give 7.3 g of tert-butyl N-tert-butoxycarbonyl-N-[(6R,12R)-6-hydroxy-12-methyl-6,15-bis(trifluoromethyl)-13,19-dioxa-3,4,18-triazatricyclo[12.3.1.12,5]nonadeca-1(18),2,4,14,16-pentaen-17-yl]carbamate an off-white solid. 1H NMR and MS confirmed the expected product. CFTR modulatory activity was confirmed using a standard Ussing Chamber Assay for CFTR potentiator activity.
# Sequence of CFTR (P13569 whole entry, species assumed): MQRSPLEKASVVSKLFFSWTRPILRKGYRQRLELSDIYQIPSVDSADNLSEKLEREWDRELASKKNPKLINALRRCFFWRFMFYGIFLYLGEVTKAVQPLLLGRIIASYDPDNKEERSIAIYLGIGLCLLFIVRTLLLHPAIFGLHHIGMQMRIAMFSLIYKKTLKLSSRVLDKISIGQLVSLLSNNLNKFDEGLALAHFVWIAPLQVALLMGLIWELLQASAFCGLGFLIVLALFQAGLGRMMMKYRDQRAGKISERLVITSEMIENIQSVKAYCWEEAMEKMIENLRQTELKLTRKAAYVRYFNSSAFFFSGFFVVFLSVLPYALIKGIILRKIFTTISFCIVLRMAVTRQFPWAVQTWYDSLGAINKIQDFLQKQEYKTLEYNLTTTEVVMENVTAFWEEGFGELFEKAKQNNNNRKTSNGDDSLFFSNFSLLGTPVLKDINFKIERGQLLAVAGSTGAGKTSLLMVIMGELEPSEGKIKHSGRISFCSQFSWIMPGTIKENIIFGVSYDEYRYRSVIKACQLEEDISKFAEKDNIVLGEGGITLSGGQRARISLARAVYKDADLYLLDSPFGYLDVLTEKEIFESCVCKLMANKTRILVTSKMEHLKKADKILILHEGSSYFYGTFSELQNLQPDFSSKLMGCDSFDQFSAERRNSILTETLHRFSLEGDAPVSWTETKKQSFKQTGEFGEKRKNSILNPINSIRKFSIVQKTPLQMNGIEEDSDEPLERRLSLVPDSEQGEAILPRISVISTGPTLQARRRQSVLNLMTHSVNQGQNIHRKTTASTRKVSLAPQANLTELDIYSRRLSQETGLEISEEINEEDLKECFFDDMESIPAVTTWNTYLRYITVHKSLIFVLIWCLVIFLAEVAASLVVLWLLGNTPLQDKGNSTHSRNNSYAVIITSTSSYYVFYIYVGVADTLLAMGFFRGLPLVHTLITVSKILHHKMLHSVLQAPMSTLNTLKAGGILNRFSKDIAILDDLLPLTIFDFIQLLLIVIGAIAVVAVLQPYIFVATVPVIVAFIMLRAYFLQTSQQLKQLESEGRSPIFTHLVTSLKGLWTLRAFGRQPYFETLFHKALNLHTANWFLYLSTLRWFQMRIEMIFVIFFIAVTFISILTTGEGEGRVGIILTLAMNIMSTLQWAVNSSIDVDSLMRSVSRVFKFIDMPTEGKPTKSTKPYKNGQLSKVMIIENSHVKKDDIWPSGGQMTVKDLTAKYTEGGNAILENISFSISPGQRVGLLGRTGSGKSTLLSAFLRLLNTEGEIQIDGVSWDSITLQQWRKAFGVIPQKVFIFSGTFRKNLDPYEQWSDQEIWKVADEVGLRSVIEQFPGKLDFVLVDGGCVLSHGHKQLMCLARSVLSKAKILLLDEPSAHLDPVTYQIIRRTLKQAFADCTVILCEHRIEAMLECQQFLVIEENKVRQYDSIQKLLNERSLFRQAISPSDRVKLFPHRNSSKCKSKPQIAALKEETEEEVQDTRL
smiles,measurement,value
"C[C@@H]1CCCCC[C@](O)(C(F)(F)F)C2=NN=C(O2)c2nc(c(C(F)(F)F)cc2N)O1 [(6R,12R)-17-Amino-12-methyl-6,15-bis(trifluoromethyl)-13,19-dioxa-3,4,18-triazatricyclo[12.3.1.12,5]nonadeca-1(18),2,4,14,16-pentaen-6-ol]",CFTR modulatory activity (CFTR potentiator activity),confirmed
